Measured values: patent US20070117743A1, “New antitumoral compounds” (priority 2003, published 2007)
Where two headings read alike, the source gives them in different places. Where a SMILES comes first, the peptide text is derived from it. Bridges are numbered along the chain shown (N, C = ends). [ ]: non-standard residue; d: D form. The star is where a group is joined. d(aIle) = CC[C@H](C)[C@@H](N)C(=O)O; d(aThr) = C[C@@H](O)[C@@H](N)C(=O)O; hCha = N[C@@H](CCC1CCCCC1)C(=O)O; Hexanoyl(5-Me) = CC(C)CCCC(=O)*; Orn = NCCC[C@H](N)C(=O)O; Dhb = C/C=C(\N)C(=O)O

Experiments:
Type in all cases: cell-based, human
HeLa = experiment: SRB colorimetric assay of cell growth and viability, HeLa; conditions: 48 hours exposure; for CC50: read-out: LC50 HELA
LoVo-Dox = experiment: SRB colorimetric assay of cell growth and viability, LoVo-Dox; conditions: 48 hours exposure; for CC50: read-out: LC50 LOVO-DOX
Procedure, shortened: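 Cells in RPMI 1640 with 10% FBS were seeded at 5×10^3 per well and left 18 hours drug-free before compounds (10 to 10^−8 μg/mL in DMSO:EtOH:PBS 0.5:0.5:99) were added for 48 hours. TCA-fixed cells were stained with SRB and read at 490 nm; triplicate wells gave GI, TGI and LC.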

LoVo = experiment: SRB colorimetric assay of cell growth and viability, LoVo; conditions: 48 hours exposure; for CC50: read-out: LC50 LOVO
SK-BR-3 = experiment: SRB colorimetric assay of cell growth and viability, SK-BR-3; conditions: 48 hours exposure
K-562 = experiment: SRB colorimetric assay of cell growth and viability, K-562; conditions: 48 hours exposure; for CC50: read-out: LC50 K-562
A-549 = experiment: SRB colorimetric assay of cell growth and viability, A-549; conditions: 48 hours exposure; for GI50: read-out: GI50 A-549; for CC50: read-out: LC50 A-549
IGROV-1 = experiment: SRB colorimetric assay of cell growth and viability, IGROV-1; conditions: 48 hours exposure
SK-MEL-28 = experiment: SRB colorimetric assay of cell growth and viability, SK-MEL-28; conditions: 48 hours exposure; for CC50: read-out: LC50 MEL-28
HeLa-APL = experiment: SRB colorimetric assay of cell growth and viability, HeLa-APL; conditions: 48 hours exposure; for CC50: read-out: LC50 HELA-APL
DU-145 = experiment: SRB colorimetric assay of cell growth and viability, DU-145; conditions: 48 hours exposure
HT-29 = experiment: SRB colorimetric assay of cell growth and viability, HT-29; conditions: 48 hours exposure; for GI50: read-out: GI50 HT-29; for CC50: read-out: LC50 HT-29
IGROV-ET = experiment: SRB colorimetric assay of cell growth and viability, IGROV-ET; conditions: 48 hours exposure; for CC50: read-out: LC50 IGROV-ET
PANC-1 = experiment: SRB colorimetric assay of cell growth and viability, PANC-1; conditions: 48 hours exposure; for CC50: read-out: LC50 PANC-1
LNCaP = experiment: SRB colorimetric assay of cell growth and viability, LNCaP; conditions: 48 hours exposure; for GI50: read-out: GI50 LN-caP; for CC50: read-out: LC50 LN-caP

C/C=C1\NC(=O)[C@H](Cc2ccccc2)NC(=O)[C@@H](C(C)C)NC(=O)[C@@H]([C@@H](C)CC)NC(=O)[C@H](NC(=O)[C@H](NC(=O)[C@H](CCCN)NC(=O)[C@H]2CCCN2C(=O)[C@H](NC(=O)[C@@H](NC(=O)[C@@H](NC(=O)[C@H](NC(=O)CC[C@@H](C)CC)C(C)C)[C@@H](C)OC(=O)C(F)(F)F)C(C)C)C(C)C)[C@@H](C)CC)[C@@H](C)OC(=O)[C@H](C(C)C)NC1=O [Compound 94, [Thr(OTfa)^12, 4(S)MeHex^14]-Kahalalide F]
GI50 (HeLa; SRB): 0.413 µM
TGI HELA (HeLa; SRB): 1.16E−06 Molar
CC50 (HeLa; SRB): 3.02 µM
GI50 (LoVo-Dox; SRB): 0.162 µM
TGI LOVO-DOX (LoVo-Dox; SRB): 3.55E−07 Molar
CC50 (LoVo-Dox; SRB): 1.32 µM
GI50 (LoVo; SRB): 0.168 µM
TGI LOVO (LoVo; SRB): 3.26E−07 Molar
CC50 (LoVo; SRB): 0.632 µM
GI50 (SK-BR-3; SRB): 0.226 µM
LC50 (SK-BR-3; SRB): 0.625 µM
TGI SK-BR-3 (SK-BR-3; SRB): 3.75E−07 Molar
GI50 (K-562; SRB): 1.84 µM
TGI K-562 (K-562; SRB): 3.75E−06 Molar
CC50 (K-562; SRB): 6.35 µM
TGI A-549 (A-549; SRB): 2.28E−06 Molar
GI50 (A-549; SRB): 1.12 µM
CC50 (A-549; SRB): 4.66 µM
GI50 (IGROV-1; SRB): 0.313 µM
LC50 (concentration causing 50% net cell killing) (IGROV-1; SRB): 3.05 µM
TGI IGROV (IGROV-1; SRB): 6.11E−07 Molar
GI50 (SK-MEL-28; SRB): 0.743 µM
TGI MEL-28 (SK-MEL-28; SRB): 1.50E−06 Molar
CC50 (SK-MEL-28; SRB): 3.01 µM
GI50 (HeLa-APL; SRB): 0.693 µM
TGI HELA-APL (HeLa-APL; SRB): 1.65E−06 Molar
CC50 (HeLa-APL; SRB): 3.92 µM
GI50 (DU-145; SRB): 0.718 µM
LC50 (concentration causing 50% net cell kill) (DU-145; SRB): 3.18 µM
TGI DU-145 (DU-145; SRB): 1.51E−06 Molar
TGI HT-29 (HT-29; SRB): 3.43E−07 Molar
GI50 (HT-29; SRB): 0.163 µM
CC50 (HT-29; SRB): 1.14 µM
GI50 (IGROV-ET; SRB): 0.208 µM
TGI IGROV-ET (IGROV-ET; SRB): 4.00E−07 Molar
CC50 (IGROV-ET; SRB): 1.58 µM
GI50 (PANC-1; SRB): 2.86 µM
TGI PANC-1 (PANC-1; SRB): 6.35E−06 Molar
CC50 (PANC-1; SRB): 6.35 µM
TGI LN-caP (LNCaP; SRB): 4.92E−06 Molar
GI50 (LNCaP; SRB): 1.65 µM
CC50 (LNCaP; SRB): 6.35 µM

C/C=C1\NC(=O)[C@H](Cc2ccccc2)NC(=O)[C@@H](C(C)C)NC(=O)[C@@H]([C@@H](C)CC)NC(=O)[C@H](NC(=O)[C@H](NC(=O)[C@H](CCCN)NC(=O)[C@H]2CCCN2C(=O)[C@H](NC(=O)[C@@H](NC(=O)[C@H](NC(=O)[C@H](NC(=O)CCCC(C)C)C(C)C)[C@H](C)O)C(C)C)C(C)C)[C@@H](C)CC)[C@@H](C)OC(=O)[C@H](C(C)C)NC1=O [Compound 7, [D-Thr^12]-KF]
GI50 (HeLa): ≥ 6.77 µM
TGI HELA (HeLa): 6.77E−06 Molar
CC50 (HeLa): ≥ 6.77 µM
GI50 (LoVo-Dox): 5.14 µM
TGI LOVO-DOX (LoVo-Dox): 6.77E−06 Molar
CC50 (LoVo-Dox): ≥ 6.77 µM
GI50 (LoVo): ≥ 6.77 µM
TGI LOVO (LoVo): 6.77E−06 Molar
CC50 (LoVo): ≥ 6.77 µM
GI50 (SK-BR-3): ≥ 6.77 µM
LC50 (SK-BR-3): ≥ 6.77 µM
TGI SK-BR-3 (SK-BR-3): 6.77E−06 Molar
GI50 (K-562): ≥ 6.77 µM
TGI K-562 (K-562): 6.77E−06 Molar
CC50 (K-562): ≥ 6.77 µM
TGI A-549 (A-549): 6.77E−06 Molar
GI50 (A-549): ≥ 6.77 µM
CC50 (A-549): ≥ 6.77 µM
GI50 (IGROV-1): ≥ 6.77 µM
LC50 (concentration causing 50% net cell killing) (IGROV-1): ≥ 6.77 µM
TGI IGROV (IGROV-1): 6.77E−06 Molar
GI50 (SK-MEL-28): ≥ 6.77 µM
TGI MEL-28 (SK-MEL-28): 6.77E−06 Molar
CC50 (SK-MEL-28): ≥ 6.77 µM
GI50 (HeLa-APL): ≥ 6.77 µM
TGI HELA-APL (HeLa-APL): 6.77E−06 Molar
CC50 (HeLa-APL): ≥ 6.77 µM
GI50 (DU-145): ≥ 6.77 µM
LC50 (concentration causing 50% net cell kill) (DU-145): ≥ 6.77 µM
TGI DU-145 (DU-145): 6.77E−06 Molar
TGI HT-29 (HT-29): 6.77E−06 Molar
GI50 (HT-29): ≥ 6.77 µM
CC50 (HT-29): ≥ 6.77 µM
GI50 (IGROV-ET): ≥ 6.77 µM
TGI IGROV-ET (IGROV-ET): 6.77E−06 Molar
CC50 (IGROV-ET): ≥ 6.77 µM
GI50 (PANC-1): ≥ 6.77 µM
TGI PANC-1 (PANC-1): 6.77E−06 Molar
CC50 (PANC-1): ≥ 6.77 µM
TGI LN-caP (LNCaP): 6.77E−06 Molar
GI50 (LNCaP): 6.04 µM
CC50 (LNCaP): ≥ 6.77 µM

C/C=C1\NC(=O)[C@H](Cc2ccccc2)NC(=O)[C@@H](C(C)C)NC(=O)[C@@H]([C@@H](C)CC)NC(=O)[C@H](NC(=O)[C@H](NC(=O)[C@H](CCCN)NC(=O)[C@H]2CCCN2C(=O)[C@H](NC(=O)[C@H](CCC2CCCCC2)NC(=O)[C@@H](NC(=O)[C@H](NC(=O)CCCC(C)C)C(C)C)[C@@H](C)O)C(C)C)[C@@H](C)CC)[C@@H](C)OC(=O)[C@H](C(C)C)NC1=O [Compound 9, [hCh^11]-KF] ({Hexanoyl(5-Me)}-[dV]T[hCha][dV][dP][Orn][d(aIle)][d(aThr)][d(aIle)][dV]F[Dhb]V; ester 8-C)
GI50 (HeLa): 0.356 µM
TGI HELA (HeLa): 1.12E−06 Molar
CC50 (HeLa): 2.92 µM
GI50 (LoVo-Dox): 0.0507 µM
TGI LOVO-DOX (LoVo-Dox): 1.30E−07 Molar
CC50 (LoVo-Dox): 0.305 µM
GI50 (LoVo): 0.0957 µM
TGI LOVO (LoVo): 1.93E−07 Molar
CC50 (LoVo): 0.39 µM
GI50 (SK-BR-3): 0.149 µM
LC50 (SK-BR-3): 1.36 µM
TGI SK-BR-3 (SK-BR-3): 3.66E−07 Molar
GI50 (K-562): 1.72 µM
TGI K-562 (K-562): 3.39E−06 Molar
CC50 (K-562): 6.47 µM
TGI A-549 (A-549): 4.48E−07 Molar
GI50 (A-549): 0.184 µM
CC50 (A-549): 1.64 µM
GI50 (IGROV-1): 0.237 µM
LC50 (concentration causing 50% net cell killing) (IGROV-1): 3.31 µM
TGI IGROV (IGROV-1): 7.76E−07 Molar
GI50 (SK-MEL-28): 0.321 µM
TGI MEL-28 (SK-MEL-28): 9.44E−07 Molar
CC50 (SK-MEL-28): 2.62 µM
GI50 (HeLa-APL): 0.391 µM
TGI HELA-APL (HeLa-APL): 1.20E−06 Molar
CC50 (HeLa-APL): 2.75 µM
GI50 (DU-145): 0.455 µM
LC50 (concentration causing 50% net cell kill) (DU-145): 3.28 µM
TGI DU-145 (DU-145): 1.24E−06 Molar
TGI HT-29 (HT-29): 1.92E−07 Molar
GI50 (HT-29): 0.086 µM
CC50 (HT-29): 0.429 µM
GI50 (IGROV-ET): 0.278 µM
TGI IGROV-ET (IGROV-ET): 8.09E−07 Molar
CC50 (IGROV-ET): 2.94 µM
GI50 (PANC-1): 2.25 µM
TGI PANC-1 (PANC-1): 5.27E−06 Molar
CC50 (PANC-1): 6.47 µM
TGI LN-caP (LNCaP): 2.33E−06 Molar
GI50 (LNCaP): 0.925 µM
CC50 (LNCaP): 5.85 µM
